{"source": "patent US20220126077A1", "about": "“Treatment for Dry Eyes” (priority 2020, published 2022)", "system": "lacrimal glands", "assay": "Experimentation with balm ingredients applied to the skin adjacent the eyes: tear production", "format": "in vivo", "conditions": "vapor released over time", "excerpt": "The formulation particularly preferred for the balm includes caffeine, in a medically useful amount, which, when applied to the skin adjacent the eyes, promotes blood circulation thereto. Additionally included is menthol in a medically useful amount, which is included to release a vapor over a period of time subsequent to application to the skin.\nBy adjacent to the eye is meant the skin area on the face which is below the lower eye lid, and between the end of the nose of the user and the outside end of the eye of the user which is closest to the ear on the same side as the eye being treated.\nThe plurality of active ingredients have been found, in experimentation when employed together, to have a beneficial synergistic effect which is well beyond the effect of the individual ingredients when employed in a balm by themselves. Currently, an active ingredient portion of the total volume of the balm mixture, includes a combination of active ingredients blended and combined to an active ingredient portion of the total balm mixture. This active ingredient portion of the total mixture ranges from 20 to 60 percent of the total volume of the balm mixture. […]", "data": [{"compound": "CC1CCC(C(C)C)C(O)C1", "note": "(stereo not shown) [menthol, Menthol]", "values": [{"measurement": "production of tears by the lacrimal glands", "result": "stimulate the lacrimal glands to produce tears"}]}]}
